Data reported in US20260226060A1, “SALTS AND CRYSTALLINE FORMS OF COMPOUND A, METHODS OF PREPARATION, AND USES THEREOF” (SHENZHEN NEWDEL BIOTECH CO., LTD., priority 2023, published 2026).
Read-outs that look alike come from different tables or passages of the source.

Legend:
[1] = Solubility analysis in biological solvents (SGF, FaSSIF, FeSSIF) and water, with pH and XRPD of residual solid; type: physicochemical; details: for Solubility: 37° C., target 5 mg/mL
Procedure: (§1) HPLC analysis was performed by using an Agilent HPLC 1260 series instrument and the HPLC methods used for solubility and stability determinations were shown in Tables 33 and 34, respectively.

[2] = Short-term physical stability of anhydrous crystal forms (40° C./75% RH, open, 1 day; XRPD); type: physicochemical
Excerpt: In addition to the mesylate crystalline form I, the other anhydrous crystalline forms were stable under high humidity conditions.

[3] = Polymorph screening: trituration for 3 or 7 days at room temperature or 50° C.; type: physicochemical
[4] = Dynamic vapor sorption (DVS) hygroscopicity; type: physicochemical
Procedure: The water vapor sorption/desorption data of the samples were collected on a dynamic vapor sorption instrument (proUmid GmbH & Co. KG, Germany). Approximately 50-70 mg of sample was placed in a sample pan previously tared and the weight of the sample was measured accurately.

[5] = Polymorph screening: antisolvent precipitation; type: physicochemical; details: for Results Wet sample: Vsolvent/Vanti-solvent 1/10
Procedure: An anti-solvent was gradually added thereto until a solid precipitated or a solvent volume of was added.

[6] = Mechanical grinding stability (XRPD); type: physicochemical; details: ground in a mortar 5 minutes, samples at 2 and 5 minutes
[7] = Polymorph screening: evaporating crystallization; type: physicochemical; details: for Results (quick volatilization −1 h) Wet sample: saturated solution (50° C. to room temperature)
[8] = Tableting stability (40 Mpa, 1 min; XRPD); type: physicochemical
[9] = Polymorph screening: cooling crystallization; type: physicochemical; details: for solid obtained by cooling crystallization: solution in methanol
Procedure: It was filtered through a microfilm into clear vials. The solution was divided into two equal parts, one part of filtrate was placed in a refrigerator (5° C.) for rapid cooling, and the other part of filtrate was placed in a heating metal module with a power off and naturally cooled to room temperature.

[10] = Solid state stability at 60° C. (closed) and 40° C./75% RH (open), XRPD and HPLC purity; type: physicochemical
Procedure: (closed) and 40° C./75 RH (open) for 14 days, XRPD analysis and purity analysis were performed at various points of time, and solid-state stability was evaluated.
as §1

physchem = details: water, thermodynamic from solid
[11] = 60° C./closed and 40° C./75% RH, 7 days

pH in solubility analysis ([1]; FaSSIF (medium pH 6.5), 0.5 h): 6.3 | pH in solubility analysis ([1]; FaSSIF (medium pH 6.5), 2 h): 6.2 | pH in solubility analysis ([1]; FaSSIF (medium pH 6.5), 24 h): 6.0 | XRPD of residual solid in solubility analysis ([1]; FaSSIF, 0.5 h): unchanged | Solubility ([1]; FaSSIF, 0.5 h): 0.011 mg/mL | Solubility ([1]; FaSSIF, 0.5 h, listed as fumarate crystalline form I): 0.011/0.011/ mg/mL | Solubility ([1]; FaSSIF, 2 h): 0.011 mg/mL | Solubility ([1]; FaSSIF, 2 h, listed as fumarate crystalline form I): 0.011/0.011/ mg/mL | XRPD of residual solid in solubility analysis ([1]; FaSSIF, 24 h): unchanged | Solubility ([1]; FaSSIF, 24 h): 0.022 mg/mL | pH in solubility analysis ([1]; FeSSIF (medium pH 5.0), 0.5 h): 5.0 | pH in solubility analysis ([1]; FeSSIF (medium pH 5.0), 2 h): 5.0 | pH in solubility analysis ([1]; FeSSIF (medium pH 5.0), 24 h): 5.0 | Solubility ([1]; FeSSIF, 0.5 h): 0.197 mg/mL | Solubility ([1]; FeSSIF, 0.5 h, listed as fumarate crystalline form I): 0.197 mg/mL | Solubility ([1]; FeSSIF, 2 h): 0.175 mg/mL | Solubility ([1]; FeSSIF, 2 h, listed as fumarate crystalline form I): 0.175 mg/mL | XRPD of residual solid in solubility analysis ([1]; FeSSIF, 24 h): unchanged | Solubility ([1]; FeSSIF, 24 h): 0.530 mg/mL | pH in solubility analysis ([1]; SGF (medium pH 1.2), 0.5 h): 1.3 | pH in solubility analysis ([1]; SGF (medium pH 1.2), 2 h): 1.4 | pH in solubility analysis ([1]; SGF (medium pH 1.2), 24 h): 1.3 | XRPD of residual solid in solubility analysis ([1]; SGF, 0.5 h): unchanged | Solubility ([1]; SGF, 0.5 h): <LOD | Solubility ([1]; SGF, 0.5 h, listed as fumarate crystalline form I): <LOD/<LOD/ | Solubility ([1]; SGF, 2 h): <LOD | Solubility ([1]; SGF, 2 h, listed as fumarate crystalline form I): <LOD/<LOD/ | XRPD of residual solid in solubility analysis ([1]; SGF, 24 h): unchanged | Solubility ([1]; SGF, 24 h): <LOD | Solid form of residual solids in solubility analysis ([1]; summary over water, SGF, FaSSIF, FeSSIF): remained unchanged | pH in solubility analysis ([1]; water (medium pH 6.6), 0.5 h): 4.6 | pH in solubility analysis ([1]; water (medium pH 6.6), 2 h): 4.3 | pH in solubility analysis ([1]; water (medium pH 6.6), 24 h): 4.2 | XRPD of residual solid in solubility analysis ([1]; water, 0.5 h): unchanged | Solubility ([1]; water, 0.5 h): <LOD | Solubility ([1]; water, 0.5 h, listed as fumarate crystalline form I): <LOD/<LOD/ | Solubility ([1]; water, 2 h): <LOD | Solubility ([1]; water, 2 h, listed as fumarate crystalline form I): <LOD/<LOD/ | XRPD of residual solid in solubility analysis ([1]; water, 24 h): unchanged | Solubility ([1]; water, 24 h): <LOD | XPRD Results after short-term physical stability [2]: unchanged | crystalline form after DVS analysis (XRPD) [4]: remained unchanged | hygroscopicity (DVS) [4]: substantially non-hygroscopic | DVS The weight gains by vapor sorption % ([4]; 80% RH): 0.2, 0.2% | DVS The weight gains by vapor sorption % ([4]; 90% RH): 0.2, 0.2% | DVS The weight gains by vapor sorption % ([4]; 90% RH, listed as fumarate crystalline form I): 0.2/0.2% | hygroscopicity (DVS) ([4]; listed as fumarate crystalline form I): almost non-hygroscopic | hygroscopicity (DVS) ([4]; listed as fumarate form crystalline I): almost non-hygroscopic | new crystalline form by antisolvent precipitation (XRPD) ([5]; from MeOH, THF or DMSO): no new crystalline form was obtained | Results Wet sample ([5]; solvent DMSO (100 mg/mL, 0.2 mL), anti-solvent EA, batch 073-C1): clear solution | Results Wet sample ([5]; solvent DMSO (100 mg/mL, 0.2 mL), anti-solvent IPAC, batch 073-C2): clear solution | Results Wet sample ([5]; solvent DMSO (100 mg/mL, 0.2 mL), anti-solvent MTBE, batch 073-C4): clear solution | Results Wet sample ([5]; solvent MeOH (Saturated, 0.3 mL), anti-solvent MTBE, batch 073-A2): clear solution | Results Wet sample ([5]; solvent THF (25 mg/mL, 0.4 mL), anti-solvent EA, batch 073-B1): clear solution | crystal form after grinding (XRPD) [6]: not changed | crystallinity after grinding (XRPD) [6]: not obviously reduced | new crystalline form by evaporating crystallization (XRPD) ([7]; quick and slow evaporation): no new crystalline form was obtained | Results (quick volatilization −1 h) Wet sample ([7]; solvent EtOH, batch 071-A2): amorphous | Results (quick volatilization −1 h) Wet sample ([7]; solvent MeOH, batch 071-A1): free base form 1 | crystalline form after tableting (XRPD) [8]: unchanged | crystallinity after tableting (XRPD) [8]: slightly reduced | new crystalline form by cooling crystallization (XRPD) [9]: no new crystalline form was obtained | solid obtained by cooling crystallization ([9]; rapid cooling (5° C.)): dissociated into free base form 1 | solid obtained by cooling crystallization ([9]; slow cooling to room temperature): into free base form 2 | Purity in stability evaluation ([10]; 0 d): 99.14 Area % | Solid state stability-14 days ([10]; 60° C./Closed and 40° C./75% RH (Open), 14 days): physically and chemically stable | chemical purity, 7 days [10, 11]: remained unchanged | solid stability, 7 days [10, 11]: physicochemically stable | Purity in stability evaluation ([10]; 7 d-40° C./75% RH): 99.13 Area % | XRPD in stability evaluation ([10]; 7 d-40° C./75% RH): unchanged | Purity in stability evaluation ([10]; 7 d-60° C./capped): 99.14 Area % | XRPD in stability evaluation ([10]; 7 d-60° C./capped): unchanged | Purity in stability evaluation ([10]; 14 d-40° C./75% RH): 99.13 Area % | XRPD in stability evaluation ([10]; 14 d-40° C./75% RH): unchanged | Purity in stability evaluation ([10]; 14 d-60° C./capped): 99.13 Area % | XRPD in stability evaluation ([10]; 14 d-60° C./capped): unchanged | Solubility (physchem; Solubility): < 600 µg/mL | Solubility (physchem; solubility): < 5000 µg/mL
Compound: Cc1c(C#Cc2cnc3ccc(N4CCC(O)CC4)nn23)cccc1C(=O)Nc1cc(Cl)cc(C(F)(F)F)c1 [Fumarate crystalline form I]
new crystalline form by trituration (XRPD) ([3]; 30 mg/mL suspension, room temperature or 50° C., 3 or 7 days): no new fumarate crystalline form was formed | dissociation on trituration ([3]; in alcohol, water, 2-Me-THF, MTBE and acetone): dissociated into free base crystalline form VII | change in crystalline form, 7 days [10, 11]: No change in crystalline form was observed
